Experimental data published in ChEMBL document CHEMBL3885881, “DrugMatrix”.

Species: Rattus norvegicus
Test: DrugMatrix - Regimen: Daily Repeat
Assay type: toxicity, organism-based, Sprague-Dawley
Design: regimen Daily Repeat, gender Male, age 6-8 weeks
Conditions: in vivo, po, route oral GAVAGE, vehicle .5 % CMC; for ABSOLUTE BASOPHIL / ABSOLUTE EOSINOPHIL / ABSOLUTE LYMPHOCYTE / ABSOLUTE MONOCYTE / ABSOLUTE SEGMENTED NEUTROPHIL / BASOPHIL / EOSINOPHIL / ERYTHROCYTE COUNT / HEMATOCRIT / HEMOGLOBIN / LEUKOCYTE COUNT / LYMPHOCYTE / MEAN CORPUSCULAR HEMOGLOBIN / MEAN CORPUSCULAR HEMOGLOBIN CONCENTRATION / MEAN CORPUSCULAR VOLUME / MONOCYTE / NEUTROPHIL / NUCLEATED RED BLOOD CELLS / PLATELET COUNT: tissue Blood; for ALANINE AMINOTRANSFERASE / ALBUMIN / ALKALINE PHOSPHATASE / ASPARTATE AMINOTRANSFERASE / BLOOD UREA NITROGEN / CARBON DIOXIDE / CHLORIDE / CHOLESTEROL / CREATINE PHOSPHOKINASE / CREATININE / GLUCOSE / LACTATE DEHYDROGENASE / LIPASE / PHOSPHORUS / POTASSIUM / SODIUM / TOTAL BILIRUBIN / TOTAL PROTEIN / URIC ACID: tissue Plasma
[1] = 10 mg/kg, 72 h, dose level Low, time 3 day
[2] = 10 mg/kg, 120 h, dose level Low, time 5 day
[3] = 1200 mg/kg, 72 h, dose level High, time 3 day
[4] = 1200 mg/kg, 120 h, dose level High, time 5 day

SMILES: CC(C)c1nc(CN(C)C(=O)N[C@H](C(=O)N[C@@H](Cc2ccccc2)C[C@H](O)[C@H](Cc2ccccc2)NC(=O)OCc2cncs2)C(C)C)cs1 [RITONAVIR]
- ABSOLUTE BASOPHIL [1]: 0 CELLS/uL
- ABSOLUTE EOSINOPHIL [1]: 0 CELLS/uL
- ABSOLUTE LYMPHOCYTE [1]: 16363 CELLS/uL
- ABSOLUTE MONOCYTE [1]: 133.67 CELLS/uL
- ABSOLUTE SEGMENTED NEUTROPHIL [1]: 2103.33 CELLS/uL
- BASOPHIL [1]: 0%
- EOSINOPHIL [1]: 0%
- ERYTHROCYTE COUNT [1]: 5.55 x10E6/uL
- HEMATOCRIT [1]: 35.17%
- HEMOGLOBIN [1]: 13.33 G/DL
- LEUKOCYTE COUNT [1]: 18.6 x10E3/uL
- LYMPHOCYTE [1]: 88%
- MEAN CORPUSCULAR HEMOGLOBIN [1]: 24.03 pg
- MEAN CORPUSCULAR HEMOGLOBIN CONCENTRATION [1]: 37.93 G/DL
- MEAN CORPUSCULAR VOLUME [1]: 63.37 fL
- MONOCYTE [1]: 0.67%
- NEUTROPHIL [1]: 11.33%
- NUCLEATED RED BLOOD CELLS [1]: 0 /100WBC
- PLATELET COUNT [1]: 1318 x10E3/uL
- ALANINE AMINOTRANSFERASE [1]: 56.67 u/L
- ALBUMIN [1]: 4.1 G/DL
- ALKALINE PHOSPHATASE [1]: 325.33 u/L
- ASPARTATE AMINOTRANSFERASE [1]: 93.33 u/L
- BLOOD UREA NITROGEN [1]: 14 mg/dL
- CARBON DIOXIDE [1]: 29 mmol/L
- CHLORIDE [1]: 101 MEQ/L
- CHOLESTEROL [1]: 90.67 mg/dL
- CREATINE PHOSPHOKINASE [1]: 297.33 u/L
- CREATININE [1]: 0.23 mg/dL
- GLUCOSE [1]: 152 mg/dL
- LACTATE DEHYDROGENASE [1]: 319.33 u/L
- LIPASE [1]: 10.67 u/L
- PHOSPHORUS [1]: 12.83 mg/dL
- POTASSIUM [1]: 6.89 MEQ/L
- SODIUM [1]: 145.67 MEQ/L
- TOTAL BILIRUBIN [1]: 0.13 mg/dL
- TOTAL PROTEIN [1]: 5.77 G/DL
- URIC ACID [1]: 1.67 mg/dL
- ABSOLUTE BASOPHIL [2]: 0 CELLS/uL
- ABSOLUTE EOSINOPHIL [2]: 71.67 CELLS/uL
- ABSOLUTE LYMPHOCYTE [2]: 18278.33 CELLS/uL
- ABSOLUTE MONOCYTE [2]: 105.33 CELLS/uL
- ABSOLUTE SEGMENTED NEUTROPHIL [2]: 1678 CELLS/uL
- BASOPHIL [2]: 0%
- EOSINOPHIL [2]: 0.33%
- ERYTHROCYTE COUNT [2]: 6.19 x10E6/uL
- HEMATOCRIT [2]: 37%
- HEMOGLOBIN [2]: 13.97 G/DL
- LEUKOCYTE COUNT [2]: 20.13 x10E3/uL
- LYMPHOCYTE [2]: 90.33%
- MEAN CORPUSCULAR HEMOGLOBIN [2]: 22.63 pg
- MEAN CORPUSCULAR HEMOGLOBIN CONCENTRATION [2]: 37.73 G/DL
- MEAN CORPUSCULAR VOLUME [2]: 59.93 fL
- MONOCYTE [2]: 0.67%
- NEUTROPHIL [2]: 8.67%
- NUCLEATED RED BLOOD CELLS [2]: 0 /100WBC
- PLATELET COUNT [2]: 1433.33 x10E3/uL
- ALANINE AMINOTRANSFERASE [2]: 50.67 u/L
- ALBUMIN [2]: 4.4 G/DL
- ALKALINE PHOSPHATASE [2]: 359.67 u/L
- ASPARTATE AMINOTRANSFERASE [2]: 81.67 u/L
- BLOOD UREA NITROGEN [2]: 15.33 mg/dL
- CARBON DIOXIDE [2]: 27.67 mmol/L
- CHLORIDE [2]: 102 MEQ/L
- CHOLESTEROL [2]: 79.67 mg/dL
- CREATINE PHOSPHOKINASE [2]: 237 u/L
- CREATININE [2]: 0.21 mg/dL
- GLUCOSE [2]: 148.67 mg/dL
- LACTATE DEHYDROGENASE [2]: 188 u/L
- LIPASE [2]: 9.33 u/L
- PHOSPHORUS [2]: 13.17 mg/dL
- POTASSIUM [2]: 6.85 MEQ/L
- SODIUM [2]: 145.83 MEQ/L
- TOTAL BILIRUBIN [2]: 0.17 mg/dL
- URIC ACID [2]: 1.63 mg/dL
- ABSOLUTE BASOPHIL [3]: 0 CELLS/uL
- ABSOLUTE EOSINOPHIL [3]: 142.67 CELLS/uL
- ABSOLUTE LYMPHOCYTE [3]: 15572 CELLS/uL
- ABSOLUTE MONOCYTE [3]: 334 CELLS/uL
- ABSOLUTE SEGMENTED NEUTROPHIL [3]: 651.33 CELLS/uL
- BASOPHIL [3]: 0%
- EOSINOPHIL [3]: 0.67%
- ERYTHROCYTE COUNT [3]: 5.91 x10E6/uL
- HEMATOCRIT [3]: 36.97%
- HEMOGLOBIN [3]: 14.63 G/DL
- LEUKOCYTE COUNT [3]: 16.7 x10E3/uL
- LYMPHOCYTE [3]: 93.67%
- MEAN CORPUSCULAR HEMOGLOBIN [3]: 24.77 pg
- MEAN CORPUSCULAR HEMOGLOBIN CONCENTRATION [3]: 39.6 G/DL
- MEAN CORPUSCULAR VOLUME [3]: 62.53 fL
- MONOCYTE [3]: 2%
- NEUTROPHIL [3]: 3.67%
- NUCLEATED RED BLOOD CELLS [3]: 0 /100WBC
- PLATELET COUNT [3]: 1284 x10E3/uL
- ALANINE AMINOTRANSFERASE [3]: 50 u/L
- ALBUMIN [3]: 3.97 G/DL
- ALKALINE PHOSPHATASE [3]: 314 u/L
- ASPARTATE AMINOTRANSFERASE [3]: 75 u/L
- BLOOD UREA NITROGEN [3]: 13.67 mg/dL
- CARBON DIOXIDE [3]: 31.67 mmol/L
- CHLORIDE [3]: 100.33 MEQ/L
- CHOLESTEROL [3]: 86.67 mg/dL
- CREATINE PHOSPHOKINASE [3]: 162.33 u/L
- CREATININE [3]: 0.16 mg/dL
- GLUCOSE [3]: 153.67 mg/dL
- LACTATE DEHYDROGENASE [3]: 134.67 u/L
- LIPASE [3]: 10.33 u/L
- PHOSPHORUS [3]: 11.4 mg/dL
- POTASSIUM [3]: 5.99 MEQ/L
- SODIUM [3]: 144.87 MEQ/L
- TOTAL BILIRUBIN [3]: 0.2 mg/dL
- TOTAL PROTEIN [3]: 5.67 G/DL
- URIC ACID [3]: 1.33 mg/dL
- ABSOLUTE BASOPHIL [4]: 0 CELLS/uL
- ABSOLUTE EOSINOPHIL [4]: 0 CELLS/uL
- ABSOLUTE LYMPHOCYTE [4]: 16888.67 CELLS/uL
- ABSOLUTE MONOCYTE [4]: 206.67 CELLS/uL
- ABSOLUTE SEGMENTED NEUTROPHIL [4]: 871.33 CELLS/uL
- BASOPHIL [4]: 0%
- EOSINOPHIL [4]: 0%
- ERYTHROCYTE COUNT [4]: 6.28 x10E6/uL
- HEMATOCRIT [4]: 37.7%
- HEMOGLOBIN [4]: 14.77 G/DL
- LEUKOCYTE COUNT [4]: 17.97 x10E3/uL
- LYMPHOCYTE [4]: 94%
- MEAN CORPUSCULAR HEMOGLOBIN [4]: 23.53 pg
- MEAN CORPUSCULAR HEMOGLOBIN CONCENTRATION [4]: 39.17 G/DL
- MEAN CORPUSCULAR VOLUME [4]: 60.2 fL
- MONOCYTE [4]: 1%
- NEUTROPHIL [4]: 5%
- NUCLEATED RED BLOOD CELLS [4]: 0 /100WBC
- PLATELET COUNT [4]: 1230 x10E3/uL
- ALANINE AMINOTRANSFERASE [4]: 59.67 u/L
- ALBUMIN [4]: 4 G/DL
- ALKALINE PHOSPHATASE [4]: 219 u/L
- ASPARTATE AMINOTRANSFERASE [4]: 104.67 u/L
- BLOOD UREA NITROGEN [4]: 16 mg/dL
- CARBON DIOXIDE [4]: 22.33 mmol/L
- CHLORIDE [4]: 106 MEQ/L
- CHOLESTEROL [4]: 79 mg/dL
- CREATINE PHOSPHOKINASE [4]: 482 u/L
- CREATININE [4]: 0.24 mg/dL
- GLUCOSE [4]: 155.33 mg/dL
- LACTATE DEHYDROGENASE [4]: 180.33 u/L
- LIPASE [4]: 10.67 u/L
- PHOSPHORUS [4]: 10.5 mg/dL
- POTASSIUM [4]: 7.89 MEQ/L
- SODIUM [4]: 148.6 MEQ/L
- TOTAL BILIRUBIN [4]: 0.17 mg/dL
- TOTAL PROTEIN [4]: 6.03 G/DL
- URIC ACID [4]: 1.8 mg/dL
